# Laboratory results: patent US7595183B2, “Cathepsins L-like cysteine protease derived from northern shrimp (Pandalus eous)” (Nichirei Corporation, priority 2002, dated 2009)
# Peptide text beside a SMILES is read from it. * marks the point of attachment. Cbz = O=C(OCc1ccccc1)*; CHN2 = [N-]=[N+]=C*; tBu = CC(C)(C)*
# Test system: northern shrimp cathepsin L1
# Assay: Effects of inhibitors on northern shrimp cathepsin L1, residual activity with Z-Phe-Arg-MCA
# Type: biochemical, northern shrimp (Pandalus eous)
# Details: for Residual activity (%): enzyme 1 nM, Z-Phe-Arg-MCA 100 μM
# Protocol: Enzymatic activity was assayed at 25° C. using intramolecularly quenched MCA (methyl coumarylamide) substrates in a buffer containing 100 mM sodium acetate, pH 6.0, 100 mM NaCl, 2 mM DTT, 2 mM EDTA and 0.01% Brij-35. The substrate solution was prepared in dimethyl sulfoxide at a concentration of 20 mM. Hydrolysis was initiated by adding the enzyme diluted with the same buffer. Enzymatic activity was determined by measuring fluorescence intensity of the released 7-amino-4-methylcoumarin (AMC) at an excitation wavelength of 380 nm and an emission wavelength of 460 nm.
# Enzyme solution was pretreated with any one of inhibitors E64 (L-trans-epoxysuccinyl-leucyl-agmatine), Z-Phe-Phe-CHN2, Z-Phe-Tyr(t-Bu)-CHN2, leupeptin, antipain, PMSF (phenylmethylsulfonyl fluoride), and 1,10-phenanthroline in a buffer (containing 100 mM sodium acetate, 2 mM DTT, 2 mM EDTA, and 0.05% Triton X-100). Residual enzymatic activity was then measured with fluorescent substrate Z-Phe-Arg-MCA. The final concentrations of the enzymes and the substrate were 1 nM and 100 μM, respectively. The residual enzymatic activity was measured with the method described above.
SMILES,Inhibition of northern shrimp cathepsin L1 (in words),Residual activity (%) (inhibitor 1 μM),Residual activity (%) (inhibitor 10 μM),Residual activity (%) (inhibitor 0.1 μM),Residual activity (%) (inhibitor 1 mM),Residual activity (%) (inhibitor 10 mM)
[N-]=[N+]=CC(=O)[C@H](Cc1ccccc1)NC(=O)[C@H](Cc1ccccc1)NC(=O)OCc1ccccc1 [Z-Phe-Phe-CHN2] (Cbz-Phe-Phe-CHN2),did not inhibit the present enzyme activity so much,78,55,–,–,–
"CC(C)C[C@H](NC(=O)[C@H]1O[C@@H]1C(=O)O)C(=O)NCCCCN=C(N)N (relative stereo) [E64, L-trans-epoxysuccinyl-leucyl-agmatine]",strongly inhibited,0,–,0,–,–
"CC(=O)N[C@@H](CC(C)C)C(=O)N[C@@H](CC(C)C)C(=O)N[C@H](C=O)CCCNC(=N)N [Leupeptin, leupeptin]",strongly inhibited,0,0,–,–,–
CC(C)(C)Oc1ccc(C[C@H](NC(=O)[C@H](Cc2ccccc2)NC(=O)OCc2ccccc2)C(=O)C=[N+]=[N-])cc1 [Z-Phe-Tyr(t-Bu)-CHN2] (Cbz-Phe-Tyr(tBu)-CHN2),did not inhibit the present enzyme activity so much,94,86,–,–,–
"c1cnc2c(c1)ccc1cccnc12 [1,10-Phenanthroline, 1,10-phenanthroline]",–,–,–,–,99,98
"O=S(=O)(F)Cc1ccccc1 [PMSF, phenylmethylsulfonyl fluoride]",–,–,–,–,100,100
